Source: patent US7355074B2, “Compounds having aromatic rings and side-chain amide-functionality and a method for transporting monovalent anions across biological membranes using the same” (The University of Maryland, priority 2003, dated 2008)

Experiments:
Type in all cases: biochemical
[1] = pH-stat fluorescent transport assay with oligophenoxyacetamides (HPTS-loaded liposomes); conditions: 100 mM NaCl inside and outside
Procedure: FIGS. 1A and 1B are derived from of pH-stat fluorescent assays with oligophenoxyacetamide compounds 1-6 described herein. Suspensions of EYPC LUVs containing the pH sensitive dye pyranine (ex 405 nm and 460 nm em 510 nm) in a phosphate buffer were used (0.5 mM of lipid, 10 mM NanH3-nPO4 n=1, 2, pH 6.4 100 mM NaCl inside and outside) (A) illustrates initial pseudo-first order rate constants in the presence of 5 μm of ionophores 1-6 (1 mol % injection of 20 μl of 0.5 mM DMSO solution of 1-6 into 1.9 mL of vesicular suspension was followed by injection of 21 μl of 0.5 M NaOH and final lysis of liposomes with Triton X-100; (B) illustrates initial pseudo-first order rate constants assessed for various concentrations of oligomeric ionophores 2-6. The same experimental protocol as in (A) was used. Legend for traces denotes use of oligocompounds 2, 3, 4, 5, 6.
(§1) Liposome Preparation for Fluorimetric Assays. Egg yolk L-α-phosphatidylcholine (EYPC ethanol solution, […], 79 μmol) was dissolved in a CHCl3/MeOH mixture, the solution was evaporated under reduced pressure and the resulting thin film was dried under high vacuum for 2 h. The lipid film was hydrated in 1.2 mL of phosphate buffer (10 mM sodium phosphate, pH=6.4, 75-100 mM MnX, M=N^+, K^+, X=Cl^−, SO4^2−, n=1,2) containing 10 μM HPTS (pyranine, 8-hydroxypyrene-1,3,6-trisulfonic acid trisodium salt) for 40 min. During hydration, the suspension was submitted to 5 freeze-thaw cycle (liquid nitrogen, water at rt). The large multilamellar liposome suspension (1 mL) was submitted to high-pressure extrusion at rt (21 extrusions through a 0.1 μm polycarbonate membrane afforded a suspension of LUVs with an average diameter of 100 nm). The LUV suspension was separated from extravesicular dye by size exclusion chromatography (SEC) (stationary phase: Sephadex G-10, mobile phase: phosphate buffer) and diluted with the same phosphate buffer to give a stock solution with a lipid concentration of 11 mM (assuming 100% of lipid was incorporated into liposomes).
pH-state transport assays. Typically, 100 μL of HPTS-loaded vesicles (stock solution) was suspended in 1.9 mL of the corresponding buffer and placed into a fluorimetric cell. The emission of HPTS at 510 nm was monitored with excitation wavelengths at 403 and 460 nm simultaneously. During the experiment, 20 μL of a 0-10 mM DMSO solution of the compounds of interest was added (through an injection port), followed by injection of 21 μL of 0.5 M aqueous NaOH. […] Maximal possible changes in dye emission were obtained at the end of each experiment by lysis of the liposomes with detergent (40 μL of 5% aqueous Triton X100). The final transport trace was obtained as a ratio of the emission intensities monitored at 460 and 403 nm and normalized to 100% of transport. Pseudo-first order rate constants were calculated from slopes of the plot of In([H^+ins]−[H^+out]) versus time, here [H^+ins] and [H^+out] are the intravesicular and extravesicular proton concentrations, respectively. The [H^+out] was assumed to remain constant over the course of the experiment, while [H^+ins] values were calculated for each point from the HPTS emission intensities according to the calibration equation pH=1.1684·log(Io/Il)+6.9807, where Io is the emission intensity with excitation at 460 nm and Il is emission intensity with excitation at 403 nm. The calibration was performed by measuring the HPTS emission intensities and the pH values of a […] HPTS solution in 10 mM phosphate buffer containing 100 mM NaCl (see FIG. s3). The absolute values for rate constants varied depending on the age of the vesicular solution and the actual stock solution of liposomes used.

[2] = pH changes in liposomes experiencing a Cl- gradient (oligophenoxyacetamides); conditions: NaCl-loaded liposomes in Na2SO4 buffer; for alkalinization of the vesicular compartment: equal amount (4 mol %)
Procedure: FIG. 2B illustrates alkanization of the vesicular aqueous compartment upon application of compounds 1-6 to a suspension of NaCl-containing vesicles in isosmomolar Na2SO4 buffer. Concentration of compounds 1-6 in the vesicular suspension was 20 μm (4 mol %). Legend for traces denotes use of oligocompounds 1, 2, 3, 4, 5, 6.
as §1
(§2) Analysis of pH changes in the liposomes experiencing a CT gradient. a) Outwardly directed gradient of Cl:HPTS-loaded vesicles (100 μL of the stock solution), filled with a saline phosphate buffer (10 mM sodium phosphate, pH 6.4, 100 mM NaCl) were suspended in 1.9 mL of an isosmotic phosphate sulfate buffer (10 mM sodium phosphate, pH 6.0, 75 mM Na2SO4) and placed into a fluorimetric cell. The emission of HPTS at 510 nm was monitored with excitation wavelengths at 403 and 460 nm simultaneously. During the experiment, 20 μL of a 0-2 mM DMSO solution of the compound of interest was added through an injection port. Intravesicular pH values were obtained as described for pH-stat transport assays. At the end of experiment, the aqueous compartment of liposomes was equilibrated with extravesicular solution by lysis of liposomes with detergent (40 μL of 5% aqueous Triton X100). b) Inwardly directed gradient of Cl:HPTS-loaded vesicles (100 μL of the stock solution), filled with a isoosimomolar sulfate phosphate buffer (10 mM sodium phosphate, pH 6.0, 75 mM Na2SO4) were suspended in 1.9 mL of an isosmotic phosphate saline buffer (10 mM sodium phosphate, pH 6.4, 100 mM NaCl) and placed into a fluorimetric cell. Further analysis was conducted as described for the case of an outwardly directed gradient of […]. Analysis of the electrostatic potential on the surface of liposomes. LUVs (100 μL of stock solution, 100 mM KCl inside and outside or 75 mM Na2SO4 inside and outside) were suspended in 1.9 mL of 100 mM NaCl buffer containing 60 nM safranin O (a potential-sensitive dye). Safranin O emission was monitored at 580 nm with excitation at 520 nm. During the course of the experiment, 20 μL of a 0-0.12 mM DMSO solution of valinomycin or 0-2 mM of 3-8 DMSO solution was added. Experiments were completed by injection of 20 μL of 1 mM aqueous solution of the defect-inductive peptide melittin.

[3] = liposome potential assay with safranin O; conditions: Na2SO4 vesicles in NaCl buffer (conditions of the trimer)
Procedure: FIG. 3 illustrates liposome potential assays. Suspension of EYPC LUVs in phosphate buffer was used (10 m M Nan H3-n PO4, n=1, 2, pH 6.4, 100 m M KCl or 75 m M Na2 H3-n PO4, n=1, 2, pH 6.4, 100 m M KCl or 75 m M NA2 SO4 inside and 100 m M NaCl, 60 nM safranin O, ex 480 nm, em 520 nm, outside). Legend for trace denotes the formation of potential in: —KCl vesicles upon application of valinmycin·Na2SO4 vesicles upon application of 3, —KCl vesicles upon application of 3, —Na2SO4 vesicles upon application of valinomycin.
as §2

[4] = pH-assisted fluorimetric transport assay with calixarene amides (HPTS-loaded liposomes); conditions: extravesicular Na, K or Cs chloride; ligand lipid ratios of up to 1:20
Procedure: The ability of 1 and 2 to mediate ion flux across a lipid bilayer was studied fluorimetrically. A solution of 1 or 2 was added to a suspension of EYPC large unilamellar vesicles (LUVs) containing the pH-sensitive dye pyranine. An NaOH solution was added to the extravesicular buffer to create a gradient of approximately one pH unit. The resulting electrostatic potential, caused by proton efflux from the liposomes, can be compensated by cation influx or anion efflux, as mediated by the exogenous ligand. Ion transport across the membrane was signaled by the increase in relative fluorescence that accompanied the rise in intravesicular pH.
Liposome Preparation. EYPC HPTS-Containing LUVs, egg yolk 1-α-phosphatidylcholine (EYPC, 60 mg, […]) was dissolved in a CHCl3MeOH mixture, the solution was evaporated under reduced pressure, and the resulting thin film was dried under high vacuum for 2 h. The lipid film was hydrated in 1.2 mL of phosphate buffer (10 mM sodium phosphage, pH=6.4, 75-100 mM MX, M=Na^+, K^+, Cs^+, X=[…], SO4^2−) containing 10 μM HPTS (pyranine 8-hydroxypyrene-1,3,6-trisulfonic acid trisodium salt) for 2 h. The LUV suspension (1 mL) was submitted to high-pressure extrusion at room temperature (2) extrusions through a 0.1 μM polycarbonate membrane afforded LUVs with a diameter of 100 nm). The LUV suspension was separated from extravesicular dye by size exclusion chromatography (SEC) stationary phase: Sephadex G-10, mobile phase:phosphate buffer) and diluted with the same phosphate buffer to give a stock solution with a lipid concentration of 11 mM (assuming 100% of lipid was incorporated into liposomes).
Fluorimetric Transport Assays. pH-Assisted Transport Assays. Typically, 100 μL of HPTS-loaded vesicles (stock solution) was suspended in 1.85 mL of the corresponding buffer and placed into a fluorimetric cell. HPTS emission at 510 nm was monitored with excitation wavelengths at 403 and 460 nm simultaneously. During the experiment, 20 μL of a 0-10 mM THF solution of the compound of interest was added through an injection port, followed by injection of 21 μL of 0.5 M aqueous NaOH. Addition of the NaOH caused a pH increase of approximately 1 pH unit in the extravesicular buffer. Maximal changes in dye emission were obtained at the end of each experiment by lysis of the liposomes with detergent (40 μL of 5% aqueous Triton x100). The final transport trace was obtained as a ratio of the emission intensities monitored at 460 and 403 nm and normalized to 100% of transport.

With `CCCCNC(=O)COc1ccccc1Cc1cccc(Cc2cccc(Cc3ccccc3OCC(=O)NCCCC)c2OCC(=O)NCCCC)c1OCC(=O)NCCCC` [tetramer 4, Tetrakis-(N-butyl-2-phenoxyacetamide)] the “relative transport activity within the series 1-6” value [1] was “generally more effective than pentamer 5 and hexamer 6”, the pH gradient generated ([2]; 4 mol %) was “the same pH gradient” and the “time to reach the pH gradient” value ([2]; 4 mol %) was 4.5 minutes. The “relative ability to alter the pH in liposomes under a Cl− gradient” value [2] was “less active than trimer 3”.

In the case of `CCCCNC(=O)COc1ccccc1Cc1cccc(Cc2cccc(Cc3cccc(Cc4cccc(Cc5ccccc5OCC(=O)NCCCC)c4OCC(=O)NCCCC)c3OCC(=O)NCCCC)c2OCC(=O)NCCCC)c1OCC(=O)NCCCC` [hexamer 6, Hexakis-(N-butyl-2-phenoxyacetamide)], the “alkalinization of the vesicular compartment” value (from here on “alkalinization”) [2] is reported as “Alkanization of the vesicular compartment was observed”.

In the case of `CC(C)[C@@H]1NC(=O)[C@H](C)OC(=O)[C@@H](C(C)C)NC(=O)[C@@H](C(C)C)OC(=O)[C@H](C(C)C)NC(=O)[C@H](C)OC(=O)[C@@H](C(C)C)NC(=O)[C@@H](C(C)C)OC(=O)[C@H](C(C)C)NC(=O)[C@H](C)OC(=O)[C@@H](C(C)C)NC(=O)[C@@H](C(C)C)OC1=O` [valinomycin, reference compound], the “ability to create a transmembrane potential” value [3] is reported as “cannot create a potential”.

For `CCCCNC(=O)COc1ccccc1Cc1cccc(Cc2cccc(Cc3cccc(Cc4ccccc4OCC(=O)NCCCC)c3OCC(=O)NCCCC)c2OCC(=O)NCCCC)c1OCC(=O)NCCCC` [pentamer 5, Pentakis-(N-butyl-2-phenoxyacetamide)], the “alkalinization” value [2] was “Alkanization of the vesicular compartment was observed”.

With `CNC(=O)COc1c2cccc1Cc1cccc(c1OCC(=O)NC)Cc1cccc(c1OCC(=O)NC)Cc1cccc(c1OCC(=O)NC)C2` [Calix[4]arene tetramethylamide 1, Calix[4]arene tetramethylamide] the transport activity [4] was “little transport activity”.

In the case of `CCCCNC(=O)COc1ccccc1Cc1ccccc1OCC(=O)NCCCC` [Dimer 2, bis-(N-butyl-2-phenoxyacetamide)], the transport activity ([1]; below 4 mol % (20 μm)) is reported as “moderate transport activity” and the “alkalinization” value [2] is reported as “Alkanization of the vesicular compartment was observed”.
